“And” between values parts separate entries of the source, which are not always exact repeats. Identical values can stand only once. Inconclusive results and toxic doses are left out.
System: P388 leukemia ip, CD2F1 mice, survival T/C
Experiment: NCI In Vivo Anticancer Drug Screen. Data for tumor model P388 Leukemia (intraperitoneal) in CD2F1 (CDF1) mice
Conditions: endpoint: median survival time, higher = longer survival
Summary of the method: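 Mice carrying the transplanted tumor received test compound or vehicle. Survival was recorded in each group, and the value is the treated-group measurement divided by that of the vehicle-treated control group.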

[1] = dose: 60.0 mg/kg/injection, schedule: Q01DX005 (ip), vehicle: saline with Tween-80
[2] = dose: 50.0 mg/kg/injection, schedule: Q01DX009 (ip), vehicle: Klucel (hydroxypropylcellulose) (HPC)
[3] = dose: 100.0 mg/kg/injection, schedule: Q01DX009 (ip), vehicle: Klucel (hydroxypropylcellulose) (HPC)
[4] = dose: 120.0 mg/kg/injection, schedule: Q01DX005 (ip), vehicle: saline with Tween-80
[5] = dose: 200.0 mg/kg/injection, schedule: Q01DX009 (ip), vehicle: Klucel (hydroxypropylcellulose) (HPC)
[6] = dose: 240.0 mg/kg/injection, schedule: Q01DX005 (ip), vehicle: saline with Tween-80
[7] = dose: 50.0 mg/kg/injection, schedule: Q01DX009 (ip), vehicle: saline
[8] = dose: 100.0 mg/kg/injection, schedule: Q01DX009 (ip), vehicle: saline

SMILES: Nc1nc(CC(N)C(=O)O)c[se]1 (stereo not given)
- T/C (dose: 60.0 mg/kg/injection, schedule: Q01DX005 (ip), vehicle: saline): 97 % of control
- T/C (dose: 120.0 mg/kg/injection, schedule: Q01DX005 (ip), vehicle: saline): 100 % of control
- T/C (dose: 240.0 mg/kg/injection, schedule: Q01DX005 (ip), vehicle: saline): 100 % of control

SMILES: CCOc1ccc(-n2c(-c3ccc(F)cc3)c(N=Nc3ccccc3)sc2=N)cc1
- T/C (dose: 60.0 mg/kg/injection, schedule: Q01DX005 (ip), vehicle: Klucel (hydroxypropylcellulose) (HPC)): 96 % of control
- T/C (dose: 120.0 mg/kg/injection, schedule: Q01DX005 (ip), vehicle: Klucel (hydroxypropylcellulose) (HPC)): 102 % of control
- T/C (dose: 240.0 mg/kg/injection, schedule: Q01DX005 (ip), vehicle: Klucel (hydroxypropylcellulose) (HPC)): 108 % of control

SMILES: CN1C(=O)N(C)C2=NC(=O)N(C)C2(C(Cl)(Cl)Cl)C1=O (stereo not given)
- T/C (dose: 7.5 mg/kg/injection, schedule: Q01DX005 (ip), vehicle: saline with Tween-80): 103 % of control
- T/C (dose: 15.0 mg/kg/injection, schedule: Q01DX005 (ip), vehicle: saline with Tween-80): 102 % of control
- T/C (dose: 30.0 mg/kg/injection, schedule: Q01DX005 (ip), vehicle: saline with Tween-80): 112 % of control
- T/C [1]: 112 % of control

SMILES: Cc1ccc(S(=O)(=O)Sc2nnnn2C)cc1
- T/C [2]: 106 % of control
- T/C [3]: 97 % of control

SMILES: O=C1NC2C(CC(O)C(O)C2O)c2cc3c(c(O)c21)OCO3 (stereo not given)
- T/C (dose: 0.19 mg/kg/injection, schedule: Q01DX009 (ip), vehicle: saline + alcohol): 103 % of control
- T/C (dose: 0.38 mg/kg/injection, schedule: Q01DX009 (ip), vehicle: saline + alcohol): 111 % of control
- T/C (dose: 0.75 mg/kg/injection, schedule: Q01DX009 (ip), vehicle: saline + alcohol): 116 % of control
- T/C (dose: 1.44 mg/kg/injection, schedule: Q01DX009 (ip), vehicle: saline + alcohol): 107 % of control
- T/C (dose: 1.5 mg/kg/injection, schedule: Q01DX009 (ip), vehicle: saline + alcohol): 117 % of control
- T/C (dose: 2.88 mg/kg/injection, schedule: Q01DX009 (ip), vehicle: saline + alcohol): 115 % of control
- T/C (dose: 5.75 mg/kg/injection, schedule: Q01DX009 (ip), vehicle: saline + alcohol): 115 % of control
- T/C (dose: 11.5 mg/kg/injection, schedule: Q01DX009 (ip), vehicle: saline + alcohol): 115 % of control

SMILES: O=[N+]([O-])c1nccn1CC(O)CCN1CCOCC1 (stereo not given)
- T/C (dose: 25.0 mg/kg/injection, schedule: Q01DX005 (ip), vehicle: saline): 110 % of control
- T/C (dose: 50.0 mg/kg/injection, schedule: Q01DX005 (ip), vehicle: saline): 102 % of control
- T/C (dose: 100.0 mg/kg/injection, schedule: Q01DX005 (ip), vehicle: saline): 102 % of control
- T/C (dose: 200.0 mg/kg/injection, schedule: Q01DX005 (ip), vehicle: saline): 106 % of control
- T/C (dose: 400.0 mg/kg/injection, schedule: Q01DX005 (ip), vehicle: saline): 101 % of control

SMILES: CCOC(=O)C(CO)NC(=O)c1cnc2ccccc2c1 (stereo not given)
- T/C [1]: 99 % of control
- T/C [4]: 97 % of control

SMILES: CCCCCCCCCCCCCCCCOc1ccc(OC)cc1C(=O)NNC(=S)SC
- T/C (dose: 50.0 mg/kg/injection, schedule: Q01DX009 (ip), vehicle: saline + alcohol): 100 % of control
- T/C (dose: 100.0 mg/kg/injection, schedule: Q01DX009 (ip), vehicle: saline + alcohol): 103 % of control
- T/C (dose: 200.0 mg/kg/injection, schedule: Q01DX009 (ip), vehicle: saline + alcohol): 87 % of control

SMILES: CC(=O)/C(C=NCC(C)(CN=C/C(C(C)=O)=C(/C)O)CN=C/C(C(C)=O)=C(/C)O)=C(\C)O (stereo not given)
- T/C [2]: 97 % of control
- T/C [3]: 100 % of control
- T/C [5]: 100 % of control

SMILES: COc1cc([C@@H]2c3cc4c(cc3C[C@@H]3COC(=O)C32)OCO4)cc(OC)c1O (stereo not given in full)
- T/C [1]: 100 % of control and 120 % of control
- T/C [6]: 107 % of control

SMILES: [Cl][Mo]([Cl])([Cl])[Cl].[Cl][Mo]([Cl])([Cl])[Cl]
- T/C (dose: 25.0 mg/kg/injection, schedule: Q01DX009 (ip), vehicle: saline): 104 % of control
- T/C [7]: 103 % of control
- T/C [8]: 99 % of control

SMILES: C=C1SC(=Nc2cccc(OC)c2)N(c2nc(Cl)nc(Cl)n2)C12CCCCC2
- T/C [7]: 100 % of control
- T/C [8]: 101 % of control
- T/C (dose: 200.0 mg/kg/injection, schedule: Q01DX009 (ip), vehicle: saline): 100 % of control

SMILES: CCCCCCC(=O)/C=C/c1ccc(OCc2ccccc2)c(OCc2ccccc2)c1
- T/C (dose: 6.25 mg/kg/injection, schedule: Q01DX005 (ip), vehicle: saline with Tween-80): 92 % of control
- T/C (dose: 12.5 mg/kg/injection, schedule: Q01DX005 (ip), vehicle: saline with Tween-80): 92 % of control

SMILES: Cc1cc(C)c(C#N)c(OCC2CCCO2)n1 (stereo not given)
- T/C (dose: 50.0 mg/kg/injection, schedule: Q01DX005 (ip), vehicle: saline with Tween-80): 95 % of control
- T/C (dose: 100.0 mg/kg/injection, schedule: Q01DX005 (ip), vehicle: saline with Tween-80): 95 % of control

SMILES: Cc1c(NC(=O)Nc2c(Cl)cccc2Cl)c(=O)n(-c2ccccc2)n1C
- T/C [2]: 102 % of control
- T/C [3]: 106 % of control
- T/C [5]: 97 % of control

SMILES: O=C(Cc1nc2ccc([N+](=O)[O-])cc2nc1CC(=O)c1cccnc1)c1cccnc1
- T/C [1]: 97 % of control
- T/C [4]: 92 % of control
- T/C [6]: 90 % of control

SMILES: COc1ccc(C(=O)Cc2nc3nnc(NC(=O)Nc4ccc(Cl)cc4)n3[nH]c2=O)cc1
- T/C [1]: 99 % of control
- T/C [4]: 99 % of control
- T/C [6]: 100 % of control

SMILES: COCNC(=O)N=C1N(COC)COCN1COC
- T/C (dose: 100.0 mg/kg/injection, schedule: Q01DX001 (ip), vehicle: saline with Tween-80): 109 % of control
- T/C (dose: 200.0 mg/kg/injection, schedule: Q01DX001 (ip), vehicle: saline with Tween-80): 106 % of control
- T/C (dose: 400.0 mg/kg/injection, schedule: Q01DX001 (ip), vehicle: saline with Tween-80): 100 % of control

SMILES: NOCc1cccc(C(F)(F)F)c1
- T/C (dose: 75.0 mg/kg/injection, schedule: Q01DX009 (ip), vehicle: saline with Tween-80): 87 % of control
- T/C (dose: 150.0 mg/kg/injection, schedule: Q01DX009 (ip), vehicle: saline with Tween-80): 91 % of control
- T/C (dose: 300.0 mg/kg/injection, schedule: Q01DX009 (ip), vehicle: saline with Tween-80): 91 % of control

SMILES: COc1ccc2nc(N)sc2c1
- T/C (dose: 12.5 mg/kg/injection, schedule: Q01DX009 (ip), vehicle: Klucel (hydroxypropylcellulose) (HPC)): 97 % of control
- T/C (dose: 12.5 mg/kg/injection, schedule: Q01DX009 (ip), vehicle: saline with Tween-80): 111 % of control
- T/C (dose: 25.0 mg/kg/injection, schedule: Q01DX009 (ip), vehicle: Klucel (hydroxypropylcellulose) (HPC)): 99 % of control
- T/C (dose: 25.0 mg/kg/injection, schedule: Q01DX009 (ip), vehicle: saline with Tween-80): 111 % of control
- T/C [2]: 107 % of control
- T/C (dose: 50.0 mg/kg/injection, schedule: Q01DX009 (ip), vehicle: saline with Tween-80): 120 % of control
- T/C [3]: 107 % of control

SMILES: CCC1(O)CC2CN(CCc3c([nH]c4ccccc34)C(C(=O)OC)(c3cc4c(cc3OC)N(C)C3C(O)(C(=O)NCCSSCCNC(=O)C5(O)C(O)C6(CC)C=CCN7CCC8(c9cc(C%10(C(=O)OC)CC%11CN(CCc%12c%10[nH]c%10ccccc%12%10)CC(O)(CC)C%11)c(OC)cc9N(C)C58)C76)C(O)C5(CC)C=CCN6CCC43C65)C2)C1 (stereo not given)
- T/C (dose: 0.1 mg/kg/injection, schedule: Q01DX009 (ip), vehicle: saline): 166 % of control
- T/C (dose: 0.19 mg/kg/injection, schedule: Q04DX003 (ip), vehicle: saline): 151 % of control
- T/C (dose: 0.2 mg/kg/injection, schedule: Q01DX009 (ip), vehicle: saline): 202 % of control
- T/C (dose: 0.31 mg/kg/injection, schedule: Q04DX003 (ip), vehicle: saline): 170 % of control
- T/C (dose: 0.38 mg/kg/injection, schedule: Q04DX003 (ip), vehicle: saline): 183 % of control
- T/C (dose: 0.39 mg/kg/injection, schedule: Q04DX003 (ip), vehicle: saline): 186 % of control
- T/C (dose: 0.4 mg/kg/injection, schedule: Q01DX009 (ip), vehicle: saline): 227 % of control
- T/C (dose: 0.63 mg/kg/injection, schedule: Q04DX003 (ip), vehicle: saline): 190 % of control
- T/C (dose: 0.7 mg/kg/injection, schedule: Q04DX003 (ip), vehicle: saline): 161 % of control
- T/C (dose: 0.75 mg/kg/injection, schedule: Q04DX003 (ip), vehicle: saline): 209 % of control and 228 % of control
- T/C (dose: 1.0 mg/kg/injection, schedule: Q04DX003 (ip), vehicle: saline): 212 % of control
- T/C (dose: 1.25 mg/kg/injection, schedule: Q04DX003 (ip), vehicle: saline): 208 % of control
- T/C (dose: 1.6 mg/kg/injection, schedule: Q04DX003 (ip), vehicle: saline): 231 % of control
- T/C (dose: 2.4 mg/kg/injection, schedule: Q04DX003 (ip), vehicle: saline): 119 % of control
- T/C (dose: 2.5 mg/kg/injection, schedule: Q04DX003 (ip), vehicle: saline): 236 % of control

SMILES: CCn1c2ccccc2c2cc(N)c(N=Nc3ccc([N+](=O)[O-])cc3)cc21
- T/C [2]: 105 % of control
- T/C [3]: 104 % of control
- T/C [5]: 105 % of control

From PubChem BioAssay AID330 (DTP/NCI, 2004)
